These are literature values, as cited in US9238611B2, “Process for separating aryl carboxylic acids” (Reliance Industries Limited, priority 2012, dated 2016).

Molecules are shown by their SMILES.

The conditions of this data set: per one milligram of the terephthalate salt.

In the case of `COc1ccc2c3c1O[C@H]1C(=O)CC[C@@]4(O)[C@@H](C2)N(C)CC[C@]314.COc1ccc2c3c1O[C@H]1C(=O)CC[C@@]4(O)[C@@H](C2)N(C)CC[C@]314.O=C(O)c1ccc(C(=O)O)cc1` [terephthalas oxycodonae], the “amount of hydrochloridum oxycodonae pharmacologically equivalent to one milligram” value was 1.13 mg.
